Results published in patent US20220168230A1, “NANOPARTICLE MEDIATED THERAPY” (Yale University, priority 2019, published 2022).

Columns and labels:
[1] = in vivo; cited from earlier work
MCAO mice = test: Therapeutic benefits in MCAO stroke mice (survival, TTC infarct volume, neurological score); format: in vivo; conditions: same amount of BA NPs and/or glyburide as in Gly-NPs, i.v. at 0, 24, 48 h, FIG. 6C, D
Description: MCAO models were generated according to Cai, et al. Neurosci Lett 2015, 597, 127-31; Guo, et al. ACS nano 2018, 12 (8), 8723-8732; Han, et al. Nanomedicine 2016, 12 (7), 1833-42; Yu, et al. Advanced Materials 2018, 30, 1705383. Briefly, rats were anesthetized with 5% isoflurane (Aerrane, Baxter, Deerfield, Ill.) in 30% O2/70% N2O using a Tabletop Anesthesia system (Harvard Apparatus, USA). Isoflurane was then maintained at 1.5%. During the procedures, the body temperature of mice was maintained at 37.0±0.5° C. Regional cerebral blood flow (rCBF) was monitored using a laser Doppler flowmeter (AD Instruments Inc.) duration the course of surgery. […]
Mice were given treatment intravenously at 0, 24 and 48 h after surgery. Mice were monitored for survival for 10 days and were euthanized if one of the following criteria was met: (1) the mouse's body weight dropped below 15% of its initial weight, or (2) the mouse became lethargic or sick and unable to feed. […] Three days later, the score of each mouse was assessed by a standard behavioral test and were scored as follows: (1) normal motor function, (2) flexion of torso and contralateral forelimb when animal was lifted by the tail, (3) hemiparalysis resulting in circling to the contralateral side when held by tail on flat surface, but normal posture at rest, (4) leaning to the contralateral side at rest, and (5) no spontaneous motor activity. […]

[2] = in vivo; cited from earlier work; remark: listed apart in the source
[3] = PET scan of ^11C-glyburide uptake in left and right brain hemispheres of MCAO rats; format: in vivo, rat; conditions: intravenous injection, FIG. 1B

COc1ccc(Cl)cc1C(=O)NCCc1ccc(S(=O)(=O)NC(=O)NC2CCCCC2)cc1 [glyburide]
ability to penetrate the BBB [1]: limited ability to penetrate the BBB
therapeutic benefits compared with Gly-NP treatment (MCAO mice): significantly less efficacy

C[C@@H]1CC[C@H]2[C@@H](C)C(=O)O[C@@H]3O[C@@]4(C)CC[C@@H]1[C@]32OO4 [Artemisinin]
bioavailability [2]: less than 10%

COc1ccc(Cl)cc1C(=O)NCCc1ccc(S(=O)(=O)NC(=O)NC2CCCCC2)cc1 [^11C-glyburide]
^11C-glyburide uptake, ischemic versus contralateral hemisphere [3]: no significant difference
